From paper PMC5486812, “Characterisation of three fungal glucuronoyl esterases on glucuronic acid ester model compounds” (Applied Microbiology and Biotechnology, 2017)

Biological target: T1, StGE2 (Thermothelomyces thermophilus, UniProt G2QJR6)
T1 construct: gene ge2; produced in a P. pastoris strain from the OPTIBIOCAT consortium; construct not described
T1 sequence (G2QJR6 19-397): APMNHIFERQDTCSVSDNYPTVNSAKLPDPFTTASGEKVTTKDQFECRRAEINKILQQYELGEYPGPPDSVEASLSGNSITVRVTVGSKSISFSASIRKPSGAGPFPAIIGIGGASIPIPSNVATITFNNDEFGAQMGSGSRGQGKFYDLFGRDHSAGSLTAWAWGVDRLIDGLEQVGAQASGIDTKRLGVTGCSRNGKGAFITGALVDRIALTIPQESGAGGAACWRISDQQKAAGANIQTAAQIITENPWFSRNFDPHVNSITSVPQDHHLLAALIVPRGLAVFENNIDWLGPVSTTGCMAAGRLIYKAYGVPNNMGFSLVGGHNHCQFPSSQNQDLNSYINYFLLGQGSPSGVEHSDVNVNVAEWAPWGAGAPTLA
Assay: coupled spectrophotometric GlcA release (K-URONIC kit), relative activity
Assay type: biochemical
Conditions: 2 mM substrate, pH 6.0, 35 °C, 30 min; purification of StGE2 not described

## O=C(OCc1ccccc1)[C@H]1OC(O)[C@H](O)[C@@H](O)[C@@H]1O (stereo partly shown) [BnGlcA]
  coupled spectrophotometric GlcA release (K-URONIC kit), relative activity: enzyme action on BnGlcA produced the highest amount of hydrolysed glucuronic acid
